Calls of active or inactive are those of the source. The rule behind the calls is not given here.
Key:
[1] = target: DNA repair protein complementing XP-A cells (Homo sapiens, UniProt P23025); experiment: Inhibition of full length human XPA expressed in Sf9 cells assessed as reduction in interaction of XPA with 32P-labeled cisplatin-modified dsDNA by EMSA
Salmonidae = experiment: Binding affinity to salmon sperm DNA assessed as DNA intercalation by SYBR-green dye based fluorescence assay
Homo sapiens = species on record: Homo sapiens; details: 10 uM
Description: Inhibition of RPA (unknown origin) at 10 uM by EMSA assay

Chain of DNA repair protein complementing XP-A cells (P23025 whole entry): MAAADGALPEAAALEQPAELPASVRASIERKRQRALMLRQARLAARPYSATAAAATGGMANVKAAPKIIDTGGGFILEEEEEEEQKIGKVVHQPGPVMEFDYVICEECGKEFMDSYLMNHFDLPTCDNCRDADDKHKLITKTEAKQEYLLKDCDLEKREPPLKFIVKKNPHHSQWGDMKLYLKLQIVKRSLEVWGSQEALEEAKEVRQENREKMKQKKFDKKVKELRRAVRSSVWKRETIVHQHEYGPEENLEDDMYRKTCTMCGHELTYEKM

SMILES | IC50 [1] | Activity (Salmonidae) | inhibition (Homo sapiens)
CC1=NN(c2cccc(C(=O)O)c2)C(=O)/C1=C\c1ccc(-c2ccc(C(=O)NCC3CC3)cc2)o1 | > 50 µM |  | 
CC1=NN(c2cccc(C(=O)NCC3CC3)c2)C(=O)/C1=C\c1ccc(-c2ccc(Cl)c(C(=O)NCC3CC3)c2)o1 | > 50 µM |  | 
CC1=NN(c2cccc(C(=O)O)c2)C(=O)/C1=C\c1ccc(-c2ccc(Cl)c(C(=O)NCC3CC3)c2)o1 |  | inactive | 
CC1=NN(c2ccc(C(=O)O)cc2)C(=O)/C1=C\c1ccc(-c2ccc(C(=O)NCc3ccc(F)cc3)cc2)o1 |  | inactive | 
CC1=NN(c2cccc(C(=O)O)c2)C(=O)/C1=C\c1ccc(-c2ccc(C(=O)NCc3ccc(F)cc3)cc2)o1 | > 50 µM |  | 
CC1=NN(c2ccc(C(=O)O)cc2)C(=O)/C1=C\c1ccc(-c2ccc(Cl)c(C(=O)NCC3CC3)c2)o1 |  | inactive | inactive

Next, values leading:

IC50 [1] | Activity (Salmonidae) | inhibition (Homo sapiens) | SMILES
 | Active | inactive | CC1=NN(c2ccc(Cl)c(C(=O)O)c2)C(=O)/C1=C\c1ccc(-c2ccc(Cl)c(C(=O)OCc3ccccc3Cl)c2)o1
 | Active | inactive | CC1=NN(c2ccc(Cl)c(C(=O)O)c2)C(=O)/C1=C\c1ccc(-c2ccc(Cl)c(C(=O)OCc3ccccc3)c2)o1
> 25 µM |  |  | CCOC(=O)c1cccc(N2N=C(C)/C(=C/c3ccc(-c4ccc(Cl)c(C(=O)NCc5ccc(F)cc5)c4)o3)C2=O)c1
 | inactive | inactive | CC1=NN(c2ccc(C(=O)O)cc2)C(=O)/C1=C\c1ccc(-c2ccc(Cl)c(C(=O)NCc3ccc(F)cc3)c2)o1
 | inactive |  | CC1=NN(c2cccc(C(=O)O)c2)C(=O)/C1=C\c1ccc(-c2ccc(Cl)c(C(=O)NCc3ccc(F)cc3)c2)o1
